How the values were obtained:
[1] = tested on: U-87 MG human glioblastoma xenographs; experiment: Tumor volume in U-87 MG human glioblastoma xenografts after microbeam radiation (fan-like array) and/or cisplatin; assay type: in vivo, Balb/c nude mice
glioblastoma tumor = experiment: Glioblastoma tumor size after irradiation with 50x50 microbeam array (Example 2) followed by cisplatin; assay type: in vivo; settings: Cisplatin administered within 30 min to 1 h after irradiation with 50x50 microbeam array
From the text: In this example, CAM were irradiated at the biomedical beamline of ESRF. The generation and preparation of the microbeams occurred basically in the same manner as described in Example 1 according to a second preferred embodiment with the substantially circular cross-section of each microbeam. The difference here however is that behind the multi-slit collimator a second collimator (such as an Archer variable multi-slit collimator) was placed into the path of the first array of microbeams formed by the first collimator. […] A GafChromic radiochromic film type […] But in Example 2 the irradiation rather punctures the tissue. Therefore, the level of exposure of the irradiated tissue is even less lethal and results in a […] chemotherapeutic window (compared to FIG. 4).

N.N.[Cl][Pt][Cl] [Cisplatin, cisplatin]
tumor sizes after treatment (tumor volume, FIG. 8a) ([1]; double treatment (DT): Cisplatin administered after the MR procedure, within window of increased vascular permeability): progressive and significant decrease | tumor sizes after treatment (tumor volume, FIG. 8a) ([1]; only Cisplatin, single chemotherapeutic treatment, no irradiation): gradual increase in size | glioblastoma tumor sizes after treatment (glioblastoma tumor): progressive and significant decrease
